# Data from patent US10363253B2, “Combination products for the treatment of RSV” (priority 2016, dated 2019).
# Values joined by “and” are separate entries in the source; they are usually repeats but may differ in a detail not shown here. Equal entries are not always repeated. Where two headings read alike, the source gives them in different places.
# Tested on: rgRSV224, an engineered RSV strain that encodes for eGFP
# Format: cell-based
# Description: To evaluate their combined antiviral effect against RSV, in vitro combination studies were performed with JNJ-53718678 (“compound A”) and various compounds with different mechanisms-of-action (“compound B”). In short, 9 concentrations of Compound A were combined with 6 or 7 concentrations of a certain compound B. HeLa cells were infected with rgRSV224, an engineered RSV strain that encodes for eGFP (Hallak L K, Spillmann D, Collins P L, Peeples M E. Glycosaminoglycan sulfation requirements for respiratory syncytial virus infection; Journal of Virology (2000), 74(22), 10508-13), in the presence of various concentrations of compound A and compound B individually or in combination.
# Compound stock solutions were 5 mM in 100% DMSO, with following exceptions: ribavirin, 20 mM; A 60444, 10 mM; CR9501, 141 μM in PBS; palivizumab, 156 μM in PBS; MDT 637, 100 μM in methanol. First, the compounds were serially diluted in 3-fold dilution series in DMSO; CR9501 and palivizumab were serially diluted in cell culture medium, and MDT 637 in methanol. The concentration series were diluted 100-fold in cell culture medium to achieve a combination matrix. 10 μL of these compound solutions were transferred to black 384-well clear-bottom tissue-culture treated plates. Next, 10 μL of a […] HeLa cell suspension was added to achieve 3000 cells per well. Finally, 10 μL of diluted virus stock was added to achieve an MOI of 1. The final DMSO concentration of all wells was 0.5% DMSO, except for the MDT 637 experiment where it was 0.25% DMSO+0.25% methanol. Each combination of compound concentrations was tested in 4 replicates on 3 separate plates, resulting in a total of 12 replicates. The plates were incubated for 3 days at 37° C. in a humidified atmosphere at 5% CO2. The GFP signal was measured with PerkinElmer EnVision apparatus using a 405 nm filter.
# The method of Harbron (Statistics in Medicine, 2010, DOI:10.1002/sim3916) was used to assess synergy. Using the Loewe definition, two compounds are characterized as being additive, synergistic or antagonistic by:
# where d1 and d2 represent the doses of the two compounds that in combination produce an effect y, and Dy,1 and Dy,2 represent the doses of the two compounds that produce the same effect, y, when administered as a monotherapy. A 3PL model (3-parameter log-logistic model) was used for the monotherapy dose-response data, where the baseline response was fixed at one.
# Following Harbron's approach, the following models were fitted to the data: • “Additive”: assuming no interaction between the two compounds • “Uniform”: assuming a constant interaction index τ across all dose combinations • “Linear A”: assuming the interaction index linearly depends on the log 10 dose of compound A: z=τ1+τ2 log 10(dA) • “Separate A”: assuming the interaction index τ takes a separate value for each dose of compound A The latter two models were also considered for compound B: • “Linear B”: assuming the interaction index linearly τ depends on the log 10 dose of compound B: τ=τ1+τ2 log 10(dB) • “Separate B”: assuming the interaction index τ takes a separate value for each dose of compound B
compound,measurement,setting,value
"O=C(Nc1ccccc1F)N[C@H]1N=C(c2ccccc2)c2ccccc2NC1=O [Compound A-60444, (S)-1-(2-fluorophenyl)-3-(2-oxo-5-phenyl-2,3-dihydro-1H-benzo[e][1,4]diazepin-3-yl) urea, reference compound]",normalized GFP signal,"A = 0, B (A-60444) = 34",1.00
same,normalized GFP signal,"A = 0, B (A-60444) = 103",1.00
same,normalized GFP signal,"A = 0, B (A-60444) = 309",0.96
same,normalized GFP signal,"A = 0, B (A-60444) = 926",0.93
same,normalized GFP signal,"A = 0, B (A-60444) = 2778",0.93
same,normalized GFP signal,"A = 0, B (A-60444) = 8333",0.75
same,normalized GFP signal,"A = 0, B (A-60444) = 25000",0.39
"Cc1nnnn1/N=C/c1ccc(O)c(C(c2ccc(O)cc2)c2cc(/C=N/n3nnnc3C)ccc2O)c1 [MDT-637, reference compound]",normalized GFP signal,,0.99 and 0.95
same,normalized GFP signal,"A = 0, B (MDT-637) = 0.038",1.01
same,normalized GFP signal,"A = 0, B (MDT-637) = 1",0.93
same,normalized GFP signal,"A = 0, B (MDT-637) = 3.1",0.75
same,normalized GFP signal,"A = 0, B (MDT-637) = 9.3",0.14
same,normalized GFP signal,"A = 0, B (MDT-637) = 28",0.01
"Cc1cnc(N2CC3(CCOCC3)C2)c(C(=O)Nc2ccc(C(=O)N3CCc4cc(C(=O)Nc5c(C)cccc5F)sc4-c4ccccc43)cc2)c1 [pulmocide compound, N-(2-fluoro-6-methylphenyl)-6-(4-(5-methyl-2-(7-oxa-2-azaspiro[3.5]nonan-2-yl)nicotinamido)benzoyl)-5,6-dihydro-4H-benzo[b]thieno[2,3-d]azepine-2-carboxamide, reference compound]",normalized GFP signal,,1.04
same,normalized GFP signal,"A = 0, B (pulmocide compound) = 0.058",0.99
same,normalized GFP signal,"A = 0, B (pulmocide compound) = 0.17",0.99
same,normalized GFP signal,"A = 0, B (pulmocide compound) = 1.6",0.91
same,normalized GFP signal,"A = 0, B (pulmocide compound) = 4.7",0.20
same,normalized GFP signal,"A = 0, B (pulmocide compound) = 14",0.02
same,normalized GFP signal,"A = 0, B (pulmocide compound) = 42",0.02
"NC(=O)c1ncn([C@@H]2O[C@H](CO)[C@@H](O)[C@H]2O)n1 [ribavirin, 1-β-D-ribofuranosyl-1H-1,2,4-triazole-3-carboxamide, reference compound]",normalized GFP signal,"A = 0, B (ribavirin) = 69",1.00
same,normalized GFP signal,"A = 0, B (ribavirin) = 206",0.98
same,normalized GFP signal,"A = 0, B (ribavirin) = 617",0.98
same,normalized GFP signal,"A = 0, B (ribavirin) = 1852",0.97
same,normalized GFP signal,"A = 0, B (ribavirin) = 5556",0.94
same,normalized GFP signal,"A = 0, B (ribavirin) = 16667",0.83
same,normalized GFP signal,"A = 0, B (ribavirin) = 50000",0.13
palivizumab: monoclonal antibody CAS 188039-54-5,normalized GFP signal,"A = 0, B (palivizumab) = 0.0061",1.05
same,normalized GFP signal,"A = 0, B (palivizumab) = 0.018",1.01
same,normalized GFP signal,"A = 0, B (palivizumab) = 0.055",0.97
same,normalized GFP signal,"A = 0, B (palivizumab) = 0.165",1.01
same,normalized GFP signal,"A = 0, B (palivizumab) = 0.494",0.89
same,normalized GFP signal,"A = 0, B (palivizumab) = 1.482",0.33
same,normalized GFP signal,"A = 0, B (palivizumab) = 4.447",0.06
